Measurements: patent US9993497B2, “Use of alginate compositions in preventing or reducing liver damage caused by a hepatotoxic agent” (HADASIT MEDICAL RESEARCH SERVICES AND DEVELOPMENT LTD., priority 2012, dated 2018)

Key:
[1] = tested on: paracetamol intoxicated mice; experiment: Nitrotyrosine staining of liver tissue (oxidative stress); format: in vivo, mice (C57BL/6); conditions: 4 mg paracetamol alone
Method: (§1) Briefly, necrosis staining was as follows: sections were first de-paraffinized and then were incubated with rabbit polyclonal IgG. Sections were then incubated with secondary antibody using the MACH 3 Rabbit HRP Polymer Detection and then dehydrated, cleared and mounted in synthetic resin. For color detection, DAB (3,3′-diaminobenzidine) was applied, followed by counterstaining Quantification of necrosis was carried out by the Ariol SL-50 system (Applied Imaging) on microscope slides. Nitrotyrosine and Ki-67 immunostaining staining was performed similarly, using a rabbit polyclonal anti-nitrotyrosine antibody (Abcam) or an anti-Ki-67 antibody (DAKO).

[2] = tested on: paracetamol intoxicated mice; experiment: Ki-67 staining of liver tissue (cell proliferation); format: in vivo, mice (C57BL/6); conditions: 4 mg paracetamol alone
Method: as §1

Structure (SMILES): CC(=O)Nc1ccc(O)cc1 [paracetamol, N-acetyl-p-aminophenol]
- Nitrotyrosine staining in liver [1]: extensive centrilobular nitrotyrosine staining
- Cell proliferation in the liver (Ki-67 staining) [2]: widespread cell proliferation in the liver
